Experimental data from patent US20260102492A1, “Inhibition of Natural Killer Cell Cytoxocity” (University of Cincinnati, priority 2022, published 2026).

What was measured:
[1] = test system: HNSCC patient-derived NK cells; test: CXCL1 ELISA of NK cell culture supernatant; type: cell-based, Human
Procedure: Healthy donor and HNSCC NK cells were isolated from PBMCs and were treated for 24 hrs with vehicle or metformin. Supernatant was collected and analyzed by ELISA (analyzed by one way ANOVA. n=10).
HNSCC NK cells were isolated from PBMCs and treated with vehicle, 12 mM metformin, 50 ng CXCL1, 10 uM everolimus, or 10 uM BP-1-102 for 24 hr. The cells were washed and plated in fresh media. After 24 hrs, supernatant was collected for ELISA.

[2] = test system: HNSCC patient-derived NK cells; test: NK cell perforin ELISA after co-culture with Cal27 cells; type: cell-based, Human; settings: for reversal of CXCL1 mediated inhibition of perforin: 50 ng CXCL1, Cal27 4 hours
Procedure: For NK cell perforin assays, NK cells were treated with drug for 24 hrs, washed, and co-cultured with Cal27 cells for 4 hours. Supernatant was then collected, snap frozen in liquid nitrogen and stored at −80 until thawed for single use. For patient samples, undiluted plasma was added directly to ELISA. ELISA kit for perforin was obtained from ABCAM. ELISA was performed according to the manufacturer's protocol. Protocols included overnight coating of capture antibody diluted by lot number recommendation, 1 hr block with 400 uL 2% BSA in PBS, 2 hr sample incubation at room temperature of 100 uL sample (no dilution of sample was performed in these experiments), 2 hr […] diluted by lot number recommendation, 20 min Streptavidin incubation with 100 uL of 1:40 dilution of stock, and 15 min incubation with 100 uL included TMB ELISA reagent. 50 uL stop solution of in house 2N […] was added to stop reaction before reading at […] wavelength on plate reader. All plates included standard curve prepared per lot number recommendation with range of 35-2000 pg.
HNSCC patient-derived NK cells were treated with exogenous CXCL1 and an inhibitor of the CXCL1 receptor, CXCR2, or metformin. Patient-derived NK cells were exposed to Cal27 cells for 4 hours and supernatant was collected for perforin analysis by ELISA. Specifically, HNSCC NK cells derived from PBMCs were treated with 50 ng CXCL1, 12 mM metformin, or 10 nM CXCR2i (navarixin) and subjected to perforin against Cal27 target cells. Cells were analyzed by flow and analyzed by one way ANOVA. n=8.
Specifically, HNSCC NK cells were treated with vehicle, metformin, or 10 uM AMPK inhibitor (Dosomorphin) for 24 hrs, washed, and co-cultured with Cal27 cells for 4 hrs. Supernatant was collected for ELISA and analyzed by one way ANOVA. n=5.
HNSCC patient-derived NK cells were treated with vehicle, metformin, 10 uM mTOR inhibitor (Everolimus), or 10 uM mTOR activator (MHY1485) for 24 hrs, washed, and co-cultured with Cal27 cells for 4 hrs. Supernatant was collected for ELISA and analyzed by one way ANOVA. n=5.
As pSTAT1 can modulate perforin production, HNSCC patient-derived NK cells were treated with vehicle, […], or 10 uM of pSTAT1i inhibitor Fludarabine for 24 hrs, washed, and co-cultured with Cal27 cells for 4 hrs.
HNSCC NK cells were treated with vehicle, 12 mM metformin, 50 ng CXCL1, or 10 uM pSTAT3 inhibitor BP-1012 and co-cultured with Cal27 cells for 4 hrs. Supernatant was collected for ELISA and analyzed by one way ANOVA. n=5.

CXCL1 [3] = test: Patient plasma CXCL1 ELISA, trial NCT02641093 (pre and post pembrolizumab); type: in vivo, Human
CXCL1 [4] = test: Plasma CXCL1 of pembrolizumab treated head and neck cancer patients (FIG. 11); type: in vivo, Human; settings: pembrolizumab treated patients vs baseline; preliminary data
Description: CXCL1 was knocked out by CRISP-Cas9 in NK cells as a novel approach in order to enhance their tumor cytotoxicity. These NK cells can be used as an “off the shelf” anti-cancer therapeutic. […] In addition, CXCL1 functions were inhibited with a CXCR2 inhibitor as an alternative treatment strategy with and without addition of a PD-1 inhibitor. […] In addition, the combination of pembrolizumab and CXCR2 inhibitor (Navaxarin) increases both PBMC and NK cell cytotoxicity (FIGS. 12A, 12B and 13).

pSTAT1 = test: Western blot of HNSCC NK cell lysates, pSTAT1; type: cell-based, Human; settings: metformin or 50 ng CXCL1, 24 hrs, FIG. 3A/3B
Procedure: NK92, Cal27, UMSCC47 and HN5 cells were cultured with drug as described. Cells were collected in RIPA (0.05% sodium deoxycholate, […], 0.1% SDS, 1% NP-40) and protein content was analyzed by Pierce BCA kit (Thermo 23225). 50 ug of protein was diluted in 1×loading buffer (SDS, bromophenol blue, 47% glycerol, Tris 0.5M pH 6.8, 0.2 mM DTT-G) and heated to 90° C. for 3 minutes. Prepared lysate was loaded into gradient gels (Biorad 4561093) and run at 85V for 1.5 hour in Biorad casing with a Biorad powerpack in 1×running buffer (Tris, Glycine, SDS). Gels were transferred on nitrocellulose and run at 100V on bench for 1 hour in 1×transfer buffer (Tris, Glycine). […] Images were analyzed in Image Studio Lite V 5.2.
To determine what those pathways could be, pathways known to be affected by both metformin and CXCL1 were investigated. pSTAT3 and mTOR are known to be increased by activation of the CXCR2 receptor, and mTOR activation can inhibit pSTAT1 expression. […] Therefore, HNSCC patient-derived NK cells treated with metformin, CXCL1, or CXCR2i (navaxarin) were collected and analyzed by western blot analysis. Head and neck squamous cell carcinoma (HNSCC) natural killer (NK) cells were treated with metformin, 50 ng CXCL1, or 10 uM CXCR2i (navarixin) for 24 hrs and collected for lysates analyzed by western blot analysis (FIG. 3A).

pSTAT3 = test: Western blot of HNSCC NK cell lysates, pSTAT3; type: cell-based, Human
Procedure: NK92, Cal27, UMSCC47 and HN5 cells were cultured with drug as described. Cells were collected in RIPA (0.05% sodium deoxycholate, […], 0.1% SDS, 1% NP-40) and protein content was analyzed by Pierce BCA kit (Thermo 23225). 50 ug of protein was diluted in 1×loading buffer (SDS, bromophenol blue, 47% glycerol, Tris 0.5M pH 6.8, 0.2 mM DTT-G) and heated to 90° C. for 3 minutes. Prepared lysate was loaded into gradient gels (Biorad 4561093) and run at 85V for 1.5 hour in Biorad casing with a Biorad powerpack in 1×running buffer (Tris, Glycine, SDS). Gels were transferred on nitrocellulose and run at 100V on bench for 1 hour in 1×transfer buffer (Tris, Glycine). Membranes were blocked in 5% BSA in TBS for 1 hr, washed, and incubated in primary diluted in 2% BSA in TBS overnight. Membranes were washed and incubated in Licor secondary (Licor 926-32211 and 925-68070) in 5% BSA in TBS for 1 hr. Membranes were washed and imaged on a Licor Odyssey Clx. Images were analyzed in Image Studio Lite V 5.2.
To determine what those pathways could be, pathways known to be affected by both metformin and CXCL1 were investigated. pSTAT3 and mTOR are known to be increased by activation of the CXCR2 receptor, and mTOR activation can inhibit pSTAT1 expression. Metformin is also hypothesized to inhibit pSTAT3 and mTOR in NK cells. Therefore, HNSCC patient-derived NK cells treated with metformin, CXCL1, or CXCR2i (navaxarin) were collected and analyzed by western blot analysis. Head and neck squamous cell carcinoma (HNSCC) natural killer (NK) cells were treated with metformin, 50 ng CXCL1, or 10 uM CXCR2i (navarixin) for 24 hrs and collected for lysates analyzed by western blot analysis (FIG. 3A).

HNC cells = test: Natural killer cytotoxicity assay (NKCA), NK cells against CFSE labeled HNC cells (7AAD); type: cell-based; settings: exogenous CXCL1 added to metformin treated NK cells
Procedure: FIG. 12B is a graph showing NK cells that were treated with either pembrolizumab (PD-1 inhibitor), exogenous CXCL1, Navaxarin (CXCR2 inhibitor) or combination and combined with CFSE labeled HNC cells. Cytotoxicity was measured by 7AAD 4 hours after incubation. N=5, PBMCS or NK cells isolated from the same PBMCs from patient samples.
NK cells were isolated from PBMCs using the EasySep Human NK Cell Isolation Kit (Stem Cell Technologies). Cells were washed in Robobuffer and treated with drug indicated in legend for 24 hrs in culture medium. One day before co-culture, cells were collected, washed, and stained with 5(6)-Carboxyfluorescein diacetate N-succinimidyl ester (CFDA-SE) (StemCell Technologies). Untreated UMSCC47, Cal-27, or matched primary HNC tumor cell lines cells were plated at 20,000 cell/ml and assumed to double overnight. NK cells were resuspended in RPMI 1640 (Corning) with 5% human serum at a density of 200,000 cells/ml. Cells were co-cultured for a Target:Effector ratio of 1:5 for 4 hrs, collected, and washed in flow buffer. Cells were then stained with 7AAD Viability Staining Solution (Biolegend). Cells were immediately run on a 4-laser BD Instrument (University of Cincinnati Cancer Cell Biology Department, Cincinnati, Ohio). […] NK killed cells were calculated by the following equation: (% CSFE+7AAD+experimental co-culture)−(% CSFE+7AAD+control no co-culture).

[5] = combination of 10 uM everolimus and 10 uM BP-1-102, also with 50 ng CXCL1, n=5
[6] = single agent (12 mM metformin, 10 uM everolimus or 10 uM BP-1-102) 24 hr, fresh media 24 hrs, n=5, FIG. 8
[7] = 10 uM single agent 24 hrs, Cal27 co-culture 4 hrs, n=5, FIG. 5

CN(CC(=O)N(Cc1ccc(C2CCCCC2)cc1)c1ccc(C(=O)O)c(O)c1)S(=O)(=O)c1c(F)c(F)c(F)c(F)c1F [BP-1-102] was tested. Which CXCL1 secretion [1, 5] did it give?
Its CXCL1 secretion is “decreased levels down to those similar of metformin even in the presence of CXCL1”.

And the CXCL1 secretion [1, 6]?
The CXCL1 secretion was “did not reduce CXCL1”.

What about the “rescue of CXCL1 mediated suppression of perforin” value ([2]; 10 uM pSTAT3 inhibitor with 50 ng CXCL1, alone or with 12 mM metformin, Cal27 4 hrs, n=5) of the same compound?
Its value is “able to rescue CXCL1 mediated suppression of perforin both alone or in presence of metformin”.

What about the perforin ([2]; 10 uM pSTAT3 inhibitor, baseline, Cal27 co-culture 4 hrs, n=5, FIG. 7) of the same compound?
The perforin was “no effect on perforin at baseline”.

How did the CXCL1 secretion [1, 5] turn out when CO[C@H]1C[C@@H]2CC[C@@H](C)[C@@](O)(O2)C(=O)C(=O)N2CCCC[C@H]2C(=O)O[C@H]([C@H](C)C[C@@H]2CC[C@@H](OCCO)[C@H](OC)C2)CC(=O)[C@H](C)/C=C(\C)[C@@H](O)[C@@H](OC)C(=O)[C@H](C)C[C@H](C)/C=C/C=C/C=C/1C [Everolimus] was run?
The CXCL1 secretion was “decreased levels down to those similar of metformin even in the presence of CXCL1”.

What about the CXCL1 secretion [1, 6] of the same compound?
Its CXCL1 secretion is “did not reduce CXCL1”.

And the perforin production ([2]; 10 uM Everolimus in combination with metformin 24 hrs, Cal27 co-culture 4 hrs, n=5)?
Its perforin production is “did not increase perforin over either agent alone”.

What about the perforin production [2, 7] of the same compound?
The perforin production was “enhanced perforin production similar to metformin”.

O=[N+]([O-])c1ccc(Nc2nc(N3CCOCC3)nc(N3CCOCC3)n2)cc1 [MHY1485] was tested. Which perforin production [2, 7] did it give?
The perforin production was “did not result in suppression of perforin”.

For pembrolizumab, which “plasma CXCL1” value (CXCL1 [3]; all patients, post vs pre pembrolizumab, FIG. 10A) is on record?
The value was “significant increase in CXCL1”.

And the “plasma CXCL1” value (CXCL1 [3]; divided into responders and non-responders, n=10 each, FIG. 10B)?
Its value is “non-responders accounted for the increase”.

What about the “plasma CXCL1” value (CXCL1 [3]; divided into responders and non-responders, n=10 each, FIG. 10B, listed as Pembrolizumab) of the same compound?
Its value is “increased with non-responders”.

And the CXCL1 in plasma (CXCL1 [4])?
The CXCL1 in plasma was “trend to higher levels of CXCL1”.

With CC[C@@H](Nc1c(Nc2cccc(C(=O)N(C)C)c2O)c(=O)c1=O)c1ccc(C)o1 [CXCR2 inhibitor, Navarixin] as the compound, how does the “reversal of CXCL1 mediated inhibition of perforin” value ([2]; 10 nM CXCR2i (navarixin) alone, n=8) read?
Its value is “reversed CXCL1 mediated inhibition”.

And the “reversal of CXCL1 mediated inhibition of perforin” value ([2]; 10 nM CXCR2i (navarixin) in combination with 12 mM metformin, n=8)?
Its value is “reversed CXCL1 mediated inhibition”.

C-X-C motif chemokine ligand 1 [CXCL1] was tested. Which perforin production ([2]; 12 mM metformin or 50 ng CXCL1, Cal27 target cells 4 hours, n=8, FIG. 2) did it give?
The perforin production was “reduced NK cell perforin production”.

What about the “metformin mediated NK degranulation” value ([2]; exogenous CXCL1 added to metformin, FIG. 2) of the same compound?
The value was “reverses metformin mediated NK degranulation”.

What about the pSTAT1 (pSTAT1) of the same compound?
The pSTAT1 was “did not reverse pSTAT1 expression with metformin or change it from baseline”.

What about the “metformin reduction of pSTAT3” value (pSTAT3; exogenous CXCL1 (50 ng) together with metformin, 24 hrs) of the same compound?
The value was “reversed”.

And the pSTAT3 (pSTAT3; metformin or 50 ng CXCL1, 24 hrs, western blot, FIG. 3A/3B)?
The pSTAT3 was “increases pSTAT3”.

And the metformin induced cytotoxicity (HNC cells)?
The metformin induced cytotoxicity was “ablated metformin induced cytotoxicity”.
